Data taken from patent US20110230481A2, “DERIVATIVES OF TETRABROMOBENZIMIDAZOLE, A PROCESS FOR THE PREPARATION THEREOF, A PHARMACEUTICAL COMPOSITION COMPRISING THE SAME, A METHOD OF USING THE SAME, A METHOD FOR MODULATING OR REGULATING SERINE/THREONINE KINASES, AND SERINE/THREONINE KINASES MODULATING AGENT” (SELVITA S.A., priority 2009, published 2011).

Tests used:
Test in all cases: KINOMEscan Max
Type in all cases: binding
[1] = biological target: T1, ASK2 (Homo sapiens, UniProt O95382)
T1 construct: DNA tag (qPCR read-out)
Summary of the method: (§1)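 In this platform each kinase carries a DNA tag and is offered an immobilized ligand aimed at the active site; test compound competes for binding, and the amount of kinase held on the ligand is measured by qPCR.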

[2] = biological target: AURKB (Homo sapiens, UniProt Q96GD4)
Summary of the method: as §1

[3] = biological target: BLK (Homo sapiens, UniProt P51451)
Summary of the method: as §1

[4] = biological target: CDK11 (Homo sapiens, UniProt Q9BWU1); settings: 1 μM
Sequence of CDK11 (Q9BWU1 whole entry): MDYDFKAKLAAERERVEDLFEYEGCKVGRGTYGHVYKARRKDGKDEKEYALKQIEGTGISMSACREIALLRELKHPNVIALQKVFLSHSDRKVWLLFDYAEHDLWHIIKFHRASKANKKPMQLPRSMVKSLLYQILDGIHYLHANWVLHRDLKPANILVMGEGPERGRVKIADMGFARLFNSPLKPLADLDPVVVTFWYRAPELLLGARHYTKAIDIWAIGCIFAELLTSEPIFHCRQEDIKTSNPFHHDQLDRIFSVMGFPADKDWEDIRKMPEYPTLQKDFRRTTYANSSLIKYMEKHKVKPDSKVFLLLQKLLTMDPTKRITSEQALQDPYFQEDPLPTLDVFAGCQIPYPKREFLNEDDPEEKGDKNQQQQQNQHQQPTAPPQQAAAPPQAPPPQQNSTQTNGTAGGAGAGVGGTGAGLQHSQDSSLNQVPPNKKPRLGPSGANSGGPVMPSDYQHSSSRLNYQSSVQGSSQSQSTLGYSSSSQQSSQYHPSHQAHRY
Summary of the method: as §1

[5] = biological target: CDK3 (Homo sapiens, UniProt Q00526); settings: 1 μM
Summary of the method: as §1

[6] = biological target: T2, CDK8 (Homo sapiens, UniProt P49336); settings: 1 μM
T2 construct: purchased Ambit (KINOMEscan Max service)
Summary of the method: as §1

[7] = biological target: T3, CSNK1G2 (Homo sapiens, UniProt P78368); settings: 1 μM
T3 construct: purchased Ambit (KINOMEscan Max panel service)
T3 sequence (P78368 whole entry): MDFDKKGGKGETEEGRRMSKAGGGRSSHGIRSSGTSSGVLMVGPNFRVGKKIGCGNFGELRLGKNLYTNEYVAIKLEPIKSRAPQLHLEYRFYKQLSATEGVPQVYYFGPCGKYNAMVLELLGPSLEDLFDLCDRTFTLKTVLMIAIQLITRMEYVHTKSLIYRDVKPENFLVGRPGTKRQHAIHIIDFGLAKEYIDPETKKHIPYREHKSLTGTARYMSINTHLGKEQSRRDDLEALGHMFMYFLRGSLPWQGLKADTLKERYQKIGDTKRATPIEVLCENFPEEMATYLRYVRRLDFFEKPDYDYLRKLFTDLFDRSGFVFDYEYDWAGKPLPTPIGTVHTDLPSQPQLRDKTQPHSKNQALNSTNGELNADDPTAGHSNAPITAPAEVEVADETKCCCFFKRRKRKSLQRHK
Summary of the method: as §1

[8] = biological target: DAPK3 (Homo sapiens, UniProt O43293)
Summary of the method: as §1

[9] = biological target: T4, EGFR (Homo sapiens, UniProt P00533); settings: 1 μM
T4 construct: purchased Ambit (KINOMEscan Max panel service)
Summary of the method: as §1

[10] = biological target: T5, EGFR(G719S) (Homo sapiens, UniProt P00533, G719S); settings: 1 μM
T5 construct: purchased Ambit (KINOMEscan Max panel service)
Summary of the method: as §1

[11] = biological target: T6, EGFR(T790M) (Homo sapiens, UniProt P00533, T790M); settings: 1 μM
T6 construct: purchased Ambit (KINOMEscan Max panel service)
Summary of the method: as §1

[12] = biological target: T7, EIF2AK1 (Homo sapiens, UniProt Q9BQI3)
T7 construct: DNA tag (qPCR read-out)
T7 sequence (Q9BQI3 whole entry): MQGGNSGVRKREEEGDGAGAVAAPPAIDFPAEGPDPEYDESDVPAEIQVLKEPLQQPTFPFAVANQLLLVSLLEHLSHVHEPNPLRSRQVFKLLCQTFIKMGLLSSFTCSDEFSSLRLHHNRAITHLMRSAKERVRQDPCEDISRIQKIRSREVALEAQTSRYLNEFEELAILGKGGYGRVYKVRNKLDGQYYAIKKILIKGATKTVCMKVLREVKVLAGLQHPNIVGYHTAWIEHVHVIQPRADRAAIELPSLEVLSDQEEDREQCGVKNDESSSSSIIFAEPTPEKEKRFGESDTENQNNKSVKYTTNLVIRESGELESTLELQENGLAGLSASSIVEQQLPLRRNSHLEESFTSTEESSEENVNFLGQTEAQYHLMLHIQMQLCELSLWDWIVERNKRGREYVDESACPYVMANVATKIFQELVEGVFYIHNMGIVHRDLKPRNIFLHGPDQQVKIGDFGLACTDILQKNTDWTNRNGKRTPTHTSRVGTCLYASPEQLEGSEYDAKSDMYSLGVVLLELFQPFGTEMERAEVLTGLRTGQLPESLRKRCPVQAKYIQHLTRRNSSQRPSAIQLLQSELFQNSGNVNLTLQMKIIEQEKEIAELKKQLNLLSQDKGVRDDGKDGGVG
Summary of the method: as §1

[13] = biological target: T8, EPHA4 (Homo sapiens, UniProt P54764)
T8 construct: purchased Ambit (KINOMEscan Max panel service)
T8 sequence (P54764 20-986): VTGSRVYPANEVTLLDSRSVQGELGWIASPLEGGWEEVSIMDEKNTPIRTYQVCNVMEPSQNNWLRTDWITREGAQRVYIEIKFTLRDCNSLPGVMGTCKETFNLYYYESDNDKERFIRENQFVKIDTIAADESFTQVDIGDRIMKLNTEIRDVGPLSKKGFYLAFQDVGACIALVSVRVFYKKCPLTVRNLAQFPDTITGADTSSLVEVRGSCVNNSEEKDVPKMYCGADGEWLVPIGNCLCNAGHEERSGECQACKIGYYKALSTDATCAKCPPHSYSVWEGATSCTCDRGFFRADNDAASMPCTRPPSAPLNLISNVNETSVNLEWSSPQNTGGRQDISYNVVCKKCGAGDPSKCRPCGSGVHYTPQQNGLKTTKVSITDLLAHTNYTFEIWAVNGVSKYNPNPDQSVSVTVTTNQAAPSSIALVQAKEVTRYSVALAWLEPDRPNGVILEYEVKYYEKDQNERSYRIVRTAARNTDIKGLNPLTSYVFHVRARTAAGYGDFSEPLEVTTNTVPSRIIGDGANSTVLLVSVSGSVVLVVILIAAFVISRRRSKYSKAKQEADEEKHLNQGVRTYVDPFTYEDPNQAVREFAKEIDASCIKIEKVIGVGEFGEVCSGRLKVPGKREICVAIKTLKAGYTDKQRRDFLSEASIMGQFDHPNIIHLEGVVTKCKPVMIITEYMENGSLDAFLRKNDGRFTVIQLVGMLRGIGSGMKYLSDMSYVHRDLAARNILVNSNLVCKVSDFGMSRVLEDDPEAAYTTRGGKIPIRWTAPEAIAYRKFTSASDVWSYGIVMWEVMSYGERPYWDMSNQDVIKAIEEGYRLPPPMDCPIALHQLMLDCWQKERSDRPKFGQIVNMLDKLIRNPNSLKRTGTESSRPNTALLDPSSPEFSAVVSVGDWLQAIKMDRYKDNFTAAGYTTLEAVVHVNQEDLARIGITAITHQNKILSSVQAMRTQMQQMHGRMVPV
Summary of the method: as §1

[14] = biological target: T9, ERBB2 (Homo sapiens, UniProt P04626)
T9 construct: purchased Ambit Kinomescan (contract panel, KINOMEscan Max)
Summary of the method: as §1

[15] = biological target: T10, ERK4 (Homo sapiens, UniProt P31152)
T10 construct: purchased Ambit Kinomescan (contract screening)
Summary of the method: as §1

[16] = biological target: T11, INSR (Homo sapiens, UniProt P06213)
T11 construct: DNA tag (qPCR read-out)
Summary of the method: as §1

[17] = biological target: T12, IRAK4 (Homo sapiens, UniProt Q9NWZ3); settings: 1 μM
T12 construct: purchased Ambit Kinomescan (contract panel)
Summary of the method: as §1

[18] = biological target: T13, JAK2(JH1domain-catalytic) (Homo sapiens, UniProt O60674); settings: 1 μM
T13 construct: JAK2(JH1domain-catalytic); purchased Ambit Kinomescan (contract screening)
Summary of the method: as §1

[19] = biological target: T14, KIT(L576P) (Homo sapiens, UniProt P10721, L576P)
T14 construct: purchased Ambit (KINOMEscan Max service)
Summary of the method: as §1

[20] = biological target: T15, LKB1 (Homo sapiens, UniProt Q15831)
T15 construct: purchased Ambit Kinomescan (contract screening)
Summary of the method: as §1

[21] = biological target: T16, MAPKAPK5 (Homo sapiens, UniProt Q8IW41)
T16 construct: purchased Ambit Kinomescan (contract panel)
Summary of the method: as §1

[22] = biological target: T17, MERTK (Homo sapiens, UniProt Q12866)
T17 construct: purchased Ambit (KINOMEscan Max service)
Summary of the method: as §1

[23] = biological target: T18, MYLK2 (Homo sapiens, UniProt Q9H1R3)
T18 construct: purchased Ambit (KINOMEscan Max service)
Summary of the method: as §1

[24] = biological target: NDR2 (Homo sapiens, UniProt Q9Y2H1)
Sequence of NDR2 (Q9Y2H1 whole entry): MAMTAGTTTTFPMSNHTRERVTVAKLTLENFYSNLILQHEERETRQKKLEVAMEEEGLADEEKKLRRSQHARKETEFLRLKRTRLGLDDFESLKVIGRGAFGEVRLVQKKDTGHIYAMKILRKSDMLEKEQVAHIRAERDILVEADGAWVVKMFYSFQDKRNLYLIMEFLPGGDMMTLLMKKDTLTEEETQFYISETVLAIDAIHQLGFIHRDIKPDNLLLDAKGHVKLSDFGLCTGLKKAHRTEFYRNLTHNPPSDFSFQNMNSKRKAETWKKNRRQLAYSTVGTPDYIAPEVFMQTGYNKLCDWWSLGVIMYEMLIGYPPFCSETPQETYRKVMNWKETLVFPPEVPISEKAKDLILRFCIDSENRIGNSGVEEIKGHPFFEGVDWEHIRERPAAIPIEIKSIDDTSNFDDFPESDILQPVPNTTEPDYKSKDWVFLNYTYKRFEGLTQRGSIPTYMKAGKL
Summary of the method: as §1

[25] = biological target: NEK4 (Homo sapiens, UniProt P51957)
Sequence of NEK4 (P51957 whole entry): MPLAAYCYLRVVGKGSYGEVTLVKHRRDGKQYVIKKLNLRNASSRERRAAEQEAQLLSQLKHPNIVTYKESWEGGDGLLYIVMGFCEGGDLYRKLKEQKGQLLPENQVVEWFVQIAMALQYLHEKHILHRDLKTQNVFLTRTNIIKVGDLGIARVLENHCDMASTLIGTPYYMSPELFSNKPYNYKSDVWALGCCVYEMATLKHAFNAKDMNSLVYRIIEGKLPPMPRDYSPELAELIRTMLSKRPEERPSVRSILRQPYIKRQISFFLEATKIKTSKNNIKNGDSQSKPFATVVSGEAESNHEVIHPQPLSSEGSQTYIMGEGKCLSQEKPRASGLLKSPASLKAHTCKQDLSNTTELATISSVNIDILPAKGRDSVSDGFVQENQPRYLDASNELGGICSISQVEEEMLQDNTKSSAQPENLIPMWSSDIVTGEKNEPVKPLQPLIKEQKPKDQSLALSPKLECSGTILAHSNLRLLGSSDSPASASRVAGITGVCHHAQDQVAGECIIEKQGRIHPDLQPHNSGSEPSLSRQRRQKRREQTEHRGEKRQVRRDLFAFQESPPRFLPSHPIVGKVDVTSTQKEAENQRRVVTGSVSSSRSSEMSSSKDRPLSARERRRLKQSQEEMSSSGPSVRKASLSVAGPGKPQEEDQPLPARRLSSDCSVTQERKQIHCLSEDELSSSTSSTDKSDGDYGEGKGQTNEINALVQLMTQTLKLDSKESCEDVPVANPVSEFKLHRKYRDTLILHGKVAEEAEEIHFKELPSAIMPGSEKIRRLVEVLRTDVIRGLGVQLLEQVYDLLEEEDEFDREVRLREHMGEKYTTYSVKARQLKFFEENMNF
Summary of the method: as §1

[26] = biological target: T19, PFTK1 (Homo sapiens, UniProt O94921); settings: 1 μM
T19 construct: DNA tag (qPCR read-out)
T19 sequence (O94921 whole entry): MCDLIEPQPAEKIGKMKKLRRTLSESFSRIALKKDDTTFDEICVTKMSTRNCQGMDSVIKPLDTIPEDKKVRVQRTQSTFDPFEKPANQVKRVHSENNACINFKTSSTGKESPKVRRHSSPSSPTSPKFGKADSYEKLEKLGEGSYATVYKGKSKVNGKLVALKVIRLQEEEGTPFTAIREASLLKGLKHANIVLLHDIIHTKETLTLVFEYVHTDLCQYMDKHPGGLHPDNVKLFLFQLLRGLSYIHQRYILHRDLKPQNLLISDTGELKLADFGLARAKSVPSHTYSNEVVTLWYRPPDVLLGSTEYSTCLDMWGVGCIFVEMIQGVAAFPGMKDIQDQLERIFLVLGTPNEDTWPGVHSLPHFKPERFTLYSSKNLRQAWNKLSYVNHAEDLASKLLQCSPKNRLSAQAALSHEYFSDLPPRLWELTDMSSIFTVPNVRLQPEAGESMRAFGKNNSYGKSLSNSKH
Summary of the method: as §1

[27] = biological target: T20, PIK3C2B (Homo sapiens, UniProt O00750)
T20 construct: purchased Ambit Kinomescan (contract screening)
Summary of the method: as §1

[28] = biological target: T21, PIK3CD (Homo sapiens, UniProt O00329)
T21 construct: DNA tag (qPCR read-out)
Summary of the method: as §1

[29] = biological target: T22, PIP5K2C (Homo sapiens, UniProt Q8TBX8)
T22 construct: DNA tag (qPCR read-out)
Summary of the method: as §1

[30] = biological target: T23, PLK4 (Homo sapiens, UniProt O00444)
T23 construct: DNA tag (qPCR read-out)
Summary of the method: as §1

[31] = biological target: T24, STK36 (Homo sapiens, UniProt Q9NRP7)
T24 construct: DNA tag (qPCR read-out)
Summary of the method: as §1

[32] = biological target: T25, SgK110 (Homo sapiens, UniProt P0C264)
T25 construct: DNA tag (qPCR read-out)
T25 sequence (P0C264 whole entry): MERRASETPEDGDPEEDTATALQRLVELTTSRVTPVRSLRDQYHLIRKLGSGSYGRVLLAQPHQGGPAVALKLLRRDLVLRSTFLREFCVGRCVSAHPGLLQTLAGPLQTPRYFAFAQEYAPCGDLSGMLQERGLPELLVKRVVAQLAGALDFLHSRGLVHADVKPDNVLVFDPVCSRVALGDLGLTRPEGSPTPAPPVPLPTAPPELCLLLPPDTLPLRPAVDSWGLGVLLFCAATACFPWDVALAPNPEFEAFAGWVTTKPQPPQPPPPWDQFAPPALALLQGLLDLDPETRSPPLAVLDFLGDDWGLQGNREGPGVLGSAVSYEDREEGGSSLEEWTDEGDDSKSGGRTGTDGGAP
Summary of the method: as §1

[33] = biological target: T26, TYK2(JH1domain-catalytic) (Homo sapiens, UniProt P29597); settings: 1 μM
T26 construct: TYK2(JH1domain-catalytic); purchased Ambit Kinomescan (contract screening service)
Summary of the method: as §1

[34] = biological target: T27, ULK1 (Homo sapiens, UniProt O75385); settings: 1 μM
T27 construct: DNA tag (qPCR read-out)
Summary of the method: as §1

[35] = biological target: p38-gamma (Homo sapiens, UniProt P53778)
Sequence of p38-gamma (P53778 whole entry): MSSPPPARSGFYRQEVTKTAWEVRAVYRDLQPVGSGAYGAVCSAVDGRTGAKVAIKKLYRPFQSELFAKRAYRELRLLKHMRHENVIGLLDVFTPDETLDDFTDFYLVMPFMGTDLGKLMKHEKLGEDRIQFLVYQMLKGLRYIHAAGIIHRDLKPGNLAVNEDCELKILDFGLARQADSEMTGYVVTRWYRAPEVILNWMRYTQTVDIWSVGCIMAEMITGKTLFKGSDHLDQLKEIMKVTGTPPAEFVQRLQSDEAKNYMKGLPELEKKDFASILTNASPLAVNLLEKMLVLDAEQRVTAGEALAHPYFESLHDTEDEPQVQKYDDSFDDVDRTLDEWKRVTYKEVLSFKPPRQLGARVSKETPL
Summary of the method: as §1

## NCCCNc1nc2c(Br)c(Br)c(Br)c(Br)c2[nH]1 [Compound 11, N-(3-aminopropyl)-4,5,6,7-tetrabromo-1H-benzo[d]imidazol-2-amine]
[1]
  remaining binding at 1 µM: 90%
[2]
  remaining binding at 1 µM: 94%
[3]
  remaining binding at 1 µM: 96%
[4]
  % binding: 74%
[5]
  % binding: 74%
[6]
  % binding: 68%
[7]
  % binding: 100%
[8]
  remaining binding at 1 µM: 73%
[9]
  % binding: 100%
[10]
  % binding: 100%
[11]
  % binding: 100%
[12]
  remaining binding at 1 µM: 89%
[13]
  remaining binding at 1 µM: 100%
[14]
  remaining binding at 1 µM: 100%
[15]
  remaining binding at 1 µM: 98%
[16]
  remaining binding at 1 µM: 41%
[17]
  % binding: 100%
[18]
  % binding: 98%
[19]
  remaining binding at 1 µM: 83%
[20]
  remaining binding at 1 µM: 96%
[21]
  remaining binding at 1 µM: 100%
[22]
  remaining binding at 1 µM: 70%
[23]
  remaining binding at 1 µM: 86%
[24]
  remaining binding at 1 µM: 100%
[25]
  remaining binding at 1 µM: 98%
[26]
  % binding: 100%
[27]
  remaining binding at 1 µM: 96%
[28]
  remaining binding at 1 µM: 100%
[29]
  remaining binding at 1 µM: 56%
[30]
  remaining binding at 1 µM: 100%
[31]
  remaining binding at 1 µM: 100%
[32]
  remaining binding at 1 µM: 100%
[33]
  % binding: 100%
[34]
  % binding: 30%
[35]
  remaining binding at 1 µM: 76%
